Laboratory results from patent US9869616B2, “Hydrogel encapsulated cell patterning and transferring method and cell-based biosensor using the same” (UNIST ACADEMY-INDUSTRY RESEARCH CORPORATION, priority 2011, dated 2018).

How the values were obtained:
[1] = test system: araBAD promoter (PBAD) of pZBRG; experiment: Induction of RFP from the genetic circuit pZBRG (araBAD promoter) in hydrogel-encapsulated cells; assay type: cell-based, Escherichia coli
[2] = test system: strain DH10B with plasmid pTrc99A-gfp; experiment: Extracellular induction of hydrogel-encapsulated cells with pTrc99A-gfp (GFP expression) by the HPT method; assay type: cell-based, Escherichia coli; conditions: 1 mM IPTG in agarose substrate; average of 10 hydrogel microparticles; GFP produced until 8 hours
Procedure: Competent cells of the MG1655 and DH10B were transformed with synthetically engineered genetic circuits. Some plasmids were transferred from the Registry of Standard Biological Parts, and the others were constructed in the experiment with different antibiotic resistance marker genes. For the growth of these strains, each Escherichia coli culture was grown overnight on M 9 agar solid medium plates with appropriate antibiotics at 35° C. A single colony was used to inoculate 5 mL M9 media with 1% glucose, 1% tryptone, and either 100 μg/mL ampicillin or 30 μg/mL chloramphenicol. Thereafter, the cultures were then grown overnight (16 hours) with vigorous aeration (200 rpm in a rotary shaker), and OD600=1.5-2 cells (1-2 mL) were centrifuged at 5000 rpm for 5 min. The obtained pellet was resuspended with fresh M9 media to give bacterial suspensions with desired cell densities. […]
The images of cell patterns were taken using a stereomicroscope (SZX16, Olympus, Japan) equipped with a CCD camera (DP72, Olympus, Japan) and a fluorescent light source (Xcite-200, ExFo Photonics solutions Inc., Mississauga, Canada) operated by the DP2-BSW software (Olympus, Japan). […] All image processing and quantification of fluorescent intensities were performed using Image J. (NIH, USA), and then results were plotted using Origin 7.1 (OriginLab, Northampton, Mass., USA). […]

## O=C[C@@H](O)[C@H](O)[C@H](O)CO [arabinose]
[1]; 400 mM arabinose in agarose substrate, in 8 hours
  RFP expression of patterned cells: activated to express red fluorescent protein (RFP)
[1]; RFP gradient reaches saturated values in about 10 hours
  threshold concentration (inducer gradient): relatively high
[1]; both tetracycline (1 μM) and arabinose (400 μM)
  cross-talk on simultaneous induction (RFP): no significant cross-talk was observed
[1]; only arabinose (400 μM) in agarose substrate
  fluorescent signals detected, separate induction: only RFP signals were detected

## CC(C)S[C@@H]1O[C@H](CO)[C@H](O)[C@H](O)[C@H]1O [IPTG, isopropyl-beta-D-thiogalactopyranoside]
[2]
  gene expression level (average GFP fluorescent intensity): 40 AU
